Experimental data: patent US20250314644A1, “METHODS COMPRISING DETECTION OF ADP-HEPTOSE” (CHILDREN'S HOSPITAL MEDICAL CENTER, priority 2023, published 2025)

System: Dnmt3a^WT cells
Assay: RNA-sequencing of HSPCs treated in vitro with ADP-heptose or H2O for 90 minutes
Assay type: cell-based, mouse

## Nc1ncnc2c1ncn2[C@@H]1O[C@H](COP(=O)(O)OP(=O)(O)O[C@@H]2O[C@H]([C@H](O)CO)[C@@H](O)[C@H](O)[C@@H]2O)[C@@H](O)[C@H]1O [ADP-heptose, ADP-D-glycero-β-D-manno-heptose]
Dnmt3a^WT cells, vs H2O
  logFC 2900005J15Rik: 0.6052
  logFC AI607873: 0.6683
  logFC Abca1: −0.707
  logFC Acsbg1: 0.5944
  logFC Adgrg6: −0.645
  logFC Akap12: −1.955
  logFC Akr1c18: 0.7051
  logFC Alpk2: 1.196
  logFC Aoc1: 2.048
  logFC Arg1: 0.7872
  logFC Arl5c: −0.704
  logFC Arntl: −0.87
  logFC Asb2: 1.407
  logFC Atoh8: 0.7783
  logFC Azin2: 0.6183
  logFC B3galt5: 0.9015
  logFC Bach2: −0.675
  logFC Bcl2a1b: 0.925
  logFC Bcl2a1d: 0.6551
  logFC Bhlha15: −0.596
  logFC Blk: −1.578
  logFC Blnk: −1.446
  logFC Cacna1f: 0.7515
  logFC Ccdc63: −0.697
  logFC Ccdc85c: 0.7217
  logFC Ccl5: 1.104
  logFC Ccl17: 2.045
  logFC Ccl22: 0.7001
  logFC Ccl24: 1.365
  logFC Cd19: −1.847
  logFC Cd40: 0.6226
  logFC Cd74: 0.82
  logFC Cd79a: −1.818
  logFC Cd83: 1.204
  logFC Cecr2: −1.929
  logFC Chst3: −1.597
  logFC Cmpk2: 0.7001
  logFC Cplx2: −1.36
  logFC Cx3cl1: 0.9782
  logFC Cxc12: −1.129
  logFC Cxcl3: −0.91
  logFC Cyp4f17: 0.6547
  logFC Dact3: 0.6573
  logFC Dcstamp: 0.6406
  logFC Ddx60: 0.7796
  logFC Dhx58: 0.8261
  logFC Dntt: −2.827
  logFC Dock9: −0.589
  logFC Dsp: −0.701
  logFC Ebf1: −2.106
  logFC Ednrb: −0.653
  logFC Efnb2: 0.9402
  logFC Egr3: 0.785
  logFC Eno2: 0.6638
  logFC Epsti1: 0.6192
  logFC Fam129c: −0.677
  logFC Fam132b: −0.657
  logFC Fktn: −0.609
  logFC Gimap8: 0.7417
  logFC Gm13152: −0.827
  logFC Gpr27: 0.7663
  logFC Grap: 0.7694
  logFC Grasp: 0.5879
  logFC Grin2c: 0.9953
  logFC Grtp1: −0.628
  logFC Gstt1: 1.055
  logFC Gzmc: 2.215
  logFC H2-Aa: 0.9618
  logFC H2-Ab1: 0.9351
  logFC H2-DMb2: 0.7028
  logFC H2-Eb1: 1.049
  logFC Hgfac: 0.647
  logFC Hist1h2bj: 1.326
  logFC Hist1h3c: 0.7275
  logFC Hist1h3e: 1.345
  logFC Hist1h4d: 0.8341
  logFC Hivep2: 0.787
  logFC Hivep3: −0.682
  logFC Hmga1: 0.812
  logFC Hsh2d: 0.6798
  logFC Htr7: 0.9558
  logFC I113: 1.008
  logFC Ifi27l2a: 0.8565
  logFC Ifi44: 0.8977
  logFC Ifi204: 0.7452
  logFC Ifit1: 1.338
  logFC Ifit3: 1.739
  logFC Ifit3b: 1.88
  logFC Igll1: −2.359
  logFC Il1a: −1.749
  logFC Il1b: −1.155
  logFC Il6: 0.8099
  logFC Irf7: 1.151
  logFC Irg1: −0.846
  logFC Isg15: 1.268
  logFC Jakmip1: −0.62
  logFC Kcnj5: −0.586
  logFC Kif19a: −2.028
  logFC Klrd1: 0.6629
  logFC Kynu: 0.8281
  logFC Lad1: 1.447
  logFC Lax1: −1.106
  logFC Lef1: −1.83
  logFC Lgals3bp: 0.6079
  logFC Lrrc32: 0.6455
  logFC Lrrc51: 0.7656
  logFC Ltbp4: −0.7
  logFC Lynx1: 0.6016
  logFC Mir6236: 1.076
  logFC Mir6516: 0.6089
  logFC Mir8112: 0.8138
  logFC Mmp14: −0.771
  logFC Mnda: 0.9121
  logFC Mpl: −0.631
  logFC Ms4a4c: 1.575
  logFC Mx1: 0.6985
  logFC Mx2: 1.416
  logFC Mzb1: −1.509
  logFC Nov: 0.9714
  logFC Nr4a3: 0.7772
  logFC Oas1a: 0.8999
  logFC Oas1b: 0.8441
  logFC Oas1c: 0.6578
  logFC Oas1g: 1.142
  logFC Oas2: 0.966
  logFC Oas3: 0.864
  logFC Oasl1: 1.088
  logFC Oasl2: 1.178
  logFC Oit3: 0.5873
  logFC P4htm: 0.6018
  logFC Parp12: 0.7346
  logFC Pcbd1: −0.601
  logFC Pcsk9: −0.871
  logFC Pdgfb: 0.647
  logFC Perp: 0.6841
  logFC Pglyrp2: 0.8355
  logFC Phf11b: 1.046
  logFC Plcb1: 0.628
  logFC Plek2: 1.111
  logFC Pou2af1: −1.979
  logFC Ppbp: 0.6175
  logFC Procr: −0.659
  logFC Prok2: −0.608
  logFC Ptch2: −0.695
  logFC Ptpn 14: −1.123
  logFC Ptprn: 0.7392
  logFC Rab17: −0.755
  logFC Rag1: −3.551
  logFC Ramp3: 0.8948
  logFC Rbp1: −0.727
  logFC Rsad2: 1.141
  logFC Rsph1: −0.696
  logFC Rtp4: 1.478
  logFC Scn4b: −2.647
  logFC Sdc3: 0.6166
  logFC Siglech: −0.625
  logFC Sirpb1b: −0.633
  logFC Slc25a27: −0.715
  logFC Slc52a3: 0.8162
  logFC Slfn4: 0.7308
  logFC Slfn5: 1.407
  logFC Slfn8: 0.8032
  logFC Smim8: 0.6316
  logFC Smpdl3b: −0.714
  logFC Snhg9: −0.7
  logFC Spry1: 0.6924
  logFC Srp54b: 2.042
  logFC St6gal1: −0.723
  logFC Stbd1: 0.7931
  logFC Tmem51: 0.6591
  logFC Tnfrsf9: 0.982
  logFC Tnfrsf11b: 3.017
  logFC Tnni1: 3.17
  logFC Traf1: 0.6999
  logFC Tsku: −0.836
  logFC Tspan13: −0.592
  logFC Tssk6: 0.668
  logFC Ube2j2: 0.8674
  logFC Usp18: 1.346
  logFC Vpreb1: −2.268
  logFC Vpreb2: −2.096
  logFC Vpreb3: −2.553
  logFC Wdr86: 1.035
  logFC Xaf1: 1.054
  logFC Zbp1: 1.131
  logFC Zbtb37: −0.702
  logFC Zbtb46: 1.256
WT HSPCs
  differentially expressed genes (global transcriptomic analysis): few differentially expressed genes
